Reference: ChEMBL document CHEMBL4619804, “Target-Based Identification and Optimization of 5-Indazol-5-yl Pyridones as Toll-like Receptor 7 and 8 Antagonists Using a Biochemical TLR8 Antagonist Competition Assay” (J Med Chem, 2020)

Legend:
[1] = biological target: T1, Toll-like receptor 9 (Homo sapiens, UniProt Q9NR96); assay: Antagonist activity at TLR9 in human PBMC assessed as inhibition of ODN2216-induced IFNalpha production preincubated for 30 mins followed by ODN2216 addition and measured after 20 hrs by alphaLISA; format: cell-based
T1 sequence (Q9NR96 whole entry): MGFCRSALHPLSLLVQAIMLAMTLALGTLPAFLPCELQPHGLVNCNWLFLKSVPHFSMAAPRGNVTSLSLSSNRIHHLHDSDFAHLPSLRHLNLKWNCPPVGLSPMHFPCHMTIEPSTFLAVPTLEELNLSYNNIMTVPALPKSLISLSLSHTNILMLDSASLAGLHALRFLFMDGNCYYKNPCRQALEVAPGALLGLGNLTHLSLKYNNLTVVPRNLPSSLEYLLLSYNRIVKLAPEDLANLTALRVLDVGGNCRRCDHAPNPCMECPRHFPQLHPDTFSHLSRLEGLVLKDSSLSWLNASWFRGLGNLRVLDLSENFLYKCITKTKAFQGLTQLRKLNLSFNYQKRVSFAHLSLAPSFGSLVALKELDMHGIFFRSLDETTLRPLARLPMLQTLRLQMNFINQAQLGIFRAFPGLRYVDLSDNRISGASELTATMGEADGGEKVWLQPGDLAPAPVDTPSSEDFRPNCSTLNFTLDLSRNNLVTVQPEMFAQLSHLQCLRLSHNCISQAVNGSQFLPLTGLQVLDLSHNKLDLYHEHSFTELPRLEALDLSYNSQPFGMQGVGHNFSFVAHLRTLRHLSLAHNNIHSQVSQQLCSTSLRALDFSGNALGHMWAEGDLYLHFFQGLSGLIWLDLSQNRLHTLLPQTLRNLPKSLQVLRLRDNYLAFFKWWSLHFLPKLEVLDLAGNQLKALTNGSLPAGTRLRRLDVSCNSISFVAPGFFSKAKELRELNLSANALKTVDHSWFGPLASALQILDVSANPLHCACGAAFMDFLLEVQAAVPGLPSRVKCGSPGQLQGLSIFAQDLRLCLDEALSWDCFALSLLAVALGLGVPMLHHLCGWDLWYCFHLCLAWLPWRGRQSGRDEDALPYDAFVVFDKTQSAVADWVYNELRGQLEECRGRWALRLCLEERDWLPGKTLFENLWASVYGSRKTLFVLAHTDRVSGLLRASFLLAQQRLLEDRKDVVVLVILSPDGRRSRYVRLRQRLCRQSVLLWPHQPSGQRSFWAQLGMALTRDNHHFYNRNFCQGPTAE

[2] = biological target: Toll-like receptor 4 (Homo sapiens, UniProt O00206); assay: Antagonist activity at TLR4 in human PBMC assessed as inhibition of LPS-induced TNFalpha production preincubated for 30 mins followed by LPS addition and measured after 20 hrs by HTRF assay; format: cell-based
[3] = biological target: T2, Toll-like receptor 7 (Homo sapiens, UniProt Q9NYK1); assay: Antagonist activity at TLR7 in human PBMC assessed as inhibition of DOTAP-ssRNA40 induced IFNalpha production preincubated for 30 mins followed by ssRNA40 addition measured after 20 hrs by alphaLISA; format: cell-based
T2 sequence (Q9NYK1 whole entry): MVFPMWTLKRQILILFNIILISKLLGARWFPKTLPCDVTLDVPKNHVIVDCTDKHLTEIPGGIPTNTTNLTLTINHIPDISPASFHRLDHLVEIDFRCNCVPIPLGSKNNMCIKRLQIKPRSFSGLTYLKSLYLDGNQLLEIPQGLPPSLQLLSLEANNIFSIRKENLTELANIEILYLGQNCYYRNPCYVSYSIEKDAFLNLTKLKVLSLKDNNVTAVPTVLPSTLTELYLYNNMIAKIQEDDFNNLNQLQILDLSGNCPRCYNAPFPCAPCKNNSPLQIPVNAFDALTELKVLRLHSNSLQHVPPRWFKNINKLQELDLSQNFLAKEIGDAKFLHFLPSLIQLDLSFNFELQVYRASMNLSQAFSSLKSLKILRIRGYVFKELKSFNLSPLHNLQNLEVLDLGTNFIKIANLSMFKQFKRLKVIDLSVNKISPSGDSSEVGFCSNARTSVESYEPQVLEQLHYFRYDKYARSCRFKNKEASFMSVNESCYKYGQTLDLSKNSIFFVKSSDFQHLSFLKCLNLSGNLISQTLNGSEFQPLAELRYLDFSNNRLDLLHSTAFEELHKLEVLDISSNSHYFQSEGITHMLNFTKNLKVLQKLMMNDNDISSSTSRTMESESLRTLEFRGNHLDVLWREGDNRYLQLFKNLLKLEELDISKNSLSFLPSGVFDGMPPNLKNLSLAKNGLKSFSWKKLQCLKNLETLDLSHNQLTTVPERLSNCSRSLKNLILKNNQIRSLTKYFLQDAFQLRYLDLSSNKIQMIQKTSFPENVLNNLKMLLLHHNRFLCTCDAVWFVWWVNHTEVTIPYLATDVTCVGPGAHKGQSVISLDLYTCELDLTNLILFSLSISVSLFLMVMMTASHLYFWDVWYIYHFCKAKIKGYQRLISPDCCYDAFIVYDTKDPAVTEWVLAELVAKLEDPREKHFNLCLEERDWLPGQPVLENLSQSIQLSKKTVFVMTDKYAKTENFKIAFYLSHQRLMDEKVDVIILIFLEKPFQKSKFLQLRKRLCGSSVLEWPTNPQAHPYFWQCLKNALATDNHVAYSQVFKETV

[4] = biological target: Cytochrome P450 3A4 (Homo sapiens, UniProt P08684); assay: Inhibition of CYP3A4 (unknown origin); format: ADME
[5] = biological target: T3, Toll-like receptor 8 (Homo sapiens, UniProt Q9NR97); assay: biochemical
T3 sequence (Q9NR97 whole entry): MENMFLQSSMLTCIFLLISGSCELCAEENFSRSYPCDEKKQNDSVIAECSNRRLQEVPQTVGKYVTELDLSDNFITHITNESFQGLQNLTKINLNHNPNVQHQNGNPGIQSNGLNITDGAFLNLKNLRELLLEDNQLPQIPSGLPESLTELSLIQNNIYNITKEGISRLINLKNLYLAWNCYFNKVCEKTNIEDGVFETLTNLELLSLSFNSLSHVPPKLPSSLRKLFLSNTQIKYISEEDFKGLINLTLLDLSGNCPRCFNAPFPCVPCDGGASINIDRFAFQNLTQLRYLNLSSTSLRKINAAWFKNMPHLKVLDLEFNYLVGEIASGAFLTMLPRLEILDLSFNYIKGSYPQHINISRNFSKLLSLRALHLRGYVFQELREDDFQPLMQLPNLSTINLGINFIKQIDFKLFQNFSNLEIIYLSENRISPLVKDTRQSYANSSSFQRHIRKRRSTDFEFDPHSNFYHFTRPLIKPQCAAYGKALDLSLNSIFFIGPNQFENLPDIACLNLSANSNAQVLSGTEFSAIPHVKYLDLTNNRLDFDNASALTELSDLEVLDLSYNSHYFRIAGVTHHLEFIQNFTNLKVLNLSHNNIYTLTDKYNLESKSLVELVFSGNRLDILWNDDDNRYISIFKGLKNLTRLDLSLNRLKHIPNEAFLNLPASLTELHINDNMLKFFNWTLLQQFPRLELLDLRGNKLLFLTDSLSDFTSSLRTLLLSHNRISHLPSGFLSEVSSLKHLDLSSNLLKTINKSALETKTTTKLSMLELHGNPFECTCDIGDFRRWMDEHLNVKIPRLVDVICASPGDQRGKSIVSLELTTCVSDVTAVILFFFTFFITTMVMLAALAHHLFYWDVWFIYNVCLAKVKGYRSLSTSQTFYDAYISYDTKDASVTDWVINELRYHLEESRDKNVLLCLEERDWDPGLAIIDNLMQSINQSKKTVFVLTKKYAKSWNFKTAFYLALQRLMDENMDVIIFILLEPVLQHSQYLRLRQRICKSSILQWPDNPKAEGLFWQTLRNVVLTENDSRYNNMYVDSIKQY

[6] = biological target: T3, Toll-like receptor 8; assay: biochemical; remark: listed apart in the source
Description: Binding affinity to human TLR8 extracellular domain (27 to 827 residues) expressed in Drosophila S2 cells by fluorescence polarization assay

Chain of Toll-like receptor 4 (O00206 whole entry): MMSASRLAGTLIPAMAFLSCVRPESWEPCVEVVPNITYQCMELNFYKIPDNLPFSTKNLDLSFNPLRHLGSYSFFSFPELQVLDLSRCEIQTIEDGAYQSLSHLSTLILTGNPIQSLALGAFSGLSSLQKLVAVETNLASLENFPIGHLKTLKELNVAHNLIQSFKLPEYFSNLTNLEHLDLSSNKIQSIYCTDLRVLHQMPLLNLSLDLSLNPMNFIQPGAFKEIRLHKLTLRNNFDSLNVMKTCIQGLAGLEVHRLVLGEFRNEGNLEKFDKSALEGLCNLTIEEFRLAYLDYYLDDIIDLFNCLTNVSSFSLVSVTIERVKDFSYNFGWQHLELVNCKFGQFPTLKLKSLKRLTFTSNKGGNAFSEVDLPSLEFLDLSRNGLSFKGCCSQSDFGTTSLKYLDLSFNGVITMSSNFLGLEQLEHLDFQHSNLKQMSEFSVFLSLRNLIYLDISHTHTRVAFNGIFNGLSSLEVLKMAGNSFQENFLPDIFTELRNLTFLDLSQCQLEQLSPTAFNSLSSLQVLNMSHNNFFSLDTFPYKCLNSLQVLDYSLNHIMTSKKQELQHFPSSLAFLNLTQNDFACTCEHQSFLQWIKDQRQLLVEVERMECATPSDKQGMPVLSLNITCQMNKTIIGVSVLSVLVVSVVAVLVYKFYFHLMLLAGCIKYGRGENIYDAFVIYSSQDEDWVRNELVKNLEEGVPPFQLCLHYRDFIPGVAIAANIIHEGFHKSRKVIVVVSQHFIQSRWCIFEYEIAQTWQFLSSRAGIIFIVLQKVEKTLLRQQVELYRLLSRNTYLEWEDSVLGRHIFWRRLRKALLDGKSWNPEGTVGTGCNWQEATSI
Chain of Cytochrome P450 3A4 (P08684 whole entry): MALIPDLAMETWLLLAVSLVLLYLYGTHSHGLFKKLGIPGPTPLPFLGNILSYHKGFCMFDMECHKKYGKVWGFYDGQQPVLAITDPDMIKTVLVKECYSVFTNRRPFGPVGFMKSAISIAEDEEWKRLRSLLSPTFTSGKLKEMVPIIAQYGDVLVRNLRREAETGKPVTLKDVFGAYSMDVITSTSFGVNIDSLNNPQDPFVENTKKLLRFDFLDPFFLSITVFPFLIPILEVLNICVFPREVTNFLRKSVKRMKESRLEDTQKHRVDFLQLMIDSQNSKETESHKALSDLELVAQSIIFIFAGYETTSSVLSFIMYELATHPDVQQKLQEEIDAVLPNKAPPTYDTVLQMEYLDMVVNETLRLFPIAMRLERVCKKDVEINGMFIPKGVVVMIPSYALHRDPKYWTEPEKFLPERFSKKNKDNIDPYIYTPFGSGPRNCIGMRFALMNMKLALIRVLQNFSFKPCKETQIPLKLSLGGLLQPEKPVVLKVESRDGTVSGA

SMILES	IC50 [1]	further results
Cc1cc(-c2ccc(=O)n(C)c2)cc2cn(C3CCNCC3)nc12	2 µM	–
Cc1cc(=O)n(C)cc1-c1cc(C)c2nn(C3CCNCC3)cc2c1	7.2 µM	IC50 [2]: > 4.2 µM
Cc1cc(-c2cc(C)c3nn(C4CCNCC4)cc3c2)cn(C)c1=O	0.2 µM	–
Cc1cc(-c2ccc(=O)n(C)c2)cc2cnc(N3CCN(C(C)C)CC3)nc12	> 10 µM	IC50 [3]: > 10 µM
Cc1cc(-c2ccc(=O)n(C)c2C)cc2cn(C3CCNCC3)nc12	> 10 µM	IC50 [4]: > 20 µM; IC50 [2]: > 10 µM
Cc1cc(-c2ccnc3[nH]ncc23)cnc1OCC12CCC(N)(CC1)CC2	–	IC50 [5]: 0.068 µM
CC[N+]1=C(/C=C/C=C/C=C2/N(CCCCCC(=O)NC34CCC(COc5ncc(-c6ccnc7[nH]ncc67)cc5C)(CC3)CC4)c3ccc(S(=O)(=O)O)cc3C2(C)C)C(C)(C)c2cc(S(=O)(=O)O)ccc21	–	Kd [6]: 0.065 µM
Cn1cc(-c2ccc3nc(N4CCN(C5CCC5)CC4)ncc3c2)ccc1=O	2.2 µM	–
